Experimental data published in US20060223889A1 (priority 2003, published 2006).

Experiments:
physchem = conditions: pH 7, water
[1] = Stability in aqueous solution; format: physicochemical

In the case of CS(=O)(=O)c1ccc([C@@H](O)[C@@H](CF)NC(=O)C(Cl)Cl)cc1 [Florfenicol, D-(threo)-1-p-methylsulfonyl phenyl-2-dichloroacetamido-3-fluoro-1-propanol], the solubility (physchem) is reported as at most 1300 µg/mL and the “hydrolysis when dissolved in water” value [1] is reported as “readily hydrolyses”.
